Assay results as given in publication PMC3950855 (British Journal of Cancer, 2014).
Values joined by “and” are separate entries in the source; they are usually repeats but may differ in a detail not shown here. Equal values may be shown once. Where a name gives a salt, the structure may show the parent alone.

Legend:
[1] = Plasma pharmacokinetics by LC/PDA; conditions: for IM trough levels (mean) / Cmax: 400 mg once daily; for Cmax: human, in vivo, im, 400 mg, IM Cmax (mean)
GIST = conditions: cited from earlier work; for median time to progression / objective remissions: salvage treatment, ref Demetri et al, 2006, 2012
[2] = ref Verweij et al, 2004, Blanke et al, 2008a, 2008b

Cc1ccc(NC(=O)c2ccc(CN3CCN(C)CC3)cc2)cc1Nc1nccc(-c2cccnc2)n1 [IM, Imatinib mesylate]
IM trough levels (mean) ([1]; with pan): 2.2 µM
IM trough levels (mean) ([1]; with pan (combination therapy), ± s.e.m.): 1290 ng ml^−1 and 1290 (±440) ng ml^−1
IM trough levels (mean) ([1]; without pan): 1.8 µM
IM trough levels (mean) ([1]; without pan (run-in), ± s.e.m.): 1085 ng ml^−1 and 1085 (±480) ng ml^−1
increase of the mean Cmax of IM ([1]; combination with panobinostat vs run-in, not statistically significant): 23%
Cmax ([1]; with pan): 4.3 µM
Cmax ([1]; without pan (7-day run-in), ± s.e.m.): 2070 ng/mL
median overall survival (GIST; [2]): 5 years
patients with long-lasting responses (GIST; [2]): 82–86%

Cc1ccc(NC(=O)c2ccc(CN3CCNCC3)cc2)cc1Nc1nccc(-c2cccnc2)n1 [desmethyl-IM, N-desmethyl-IM]
actual plasma levels of desmethyl-IM vs prediction ([1]; during combination with panobinostat): as predicted

CNC(=O)c1cc(Oc2ccc(NC(=O)Nc3ccc(Cl)c(C(F)(F)F)c3)c(F)c2)ccn1 [regorafenib]
median time to progression (GIST): ~6 months
objective remissions (GIST): 4.5%

CCN(CC)CCNC(=O)c1c(C)[nH]c(/C=C2\C(=O)Nc3ccc(F)cc32)c1C [sunitinib]
median time to progression (GIST): ~6 months
objective remissions (GIST): 7%
